Measured values as given in US8937038B2, “Composition containing peptide ligand that bonds with CXCR2 for treating infective and inflammatory diseases” (priority 2010, dated 2015).

Tests used:
CLP mice [1] = test: Histological analysis (hematoxylin and eosin) of major internal organs of CLP mice; assay type: in vivo, mouse; conditions: FIG. 7
Procedure: A mouse was subjected to CLP surgery, and after 2 hours, PBS or Ac-PGP was injected at a dose of 17.5 mg/kg to the mouse. After the CLP surgery, the mouse was sacrificed within 24 hours, and the lung of the mouse was fixed, microtomed, and stained with hematoxylin and eosin so as to perform morphological analysis.
(§1) The defunctionalization of the major internal organs such as lungs was associated with the mortality after sepsis. A morphological change was observed by performing hematoxylin and eosin staining. […] Liver tissues from the CLP mice were necrotized to a higher extent, but the necrosis of the liver tissues was decreased by administration of Ac-PGP. […] Most of the apoptosis in the thymus or spleen of a CLP mouse was caused in the cortex of the thymus or spleen in which immature cells were populated. When compared with those of the sham or Ac-PGP mice, an important morphological change in apoptotic cells of the CLP mice is that small compact pyknosis containing multiple nuclear fragments were present in apoptotic lymphocytes (FIG. 7). […] The apoptosis of immune cells was also accompanied with sepsis.

human neutrophils = test: Cytokine production by LPS-stimulated human neutrophils; assay type: cell-based; conditions: human neutrophils stimulated with LPS
Source text: (§2) All kinds of protocols used in human beings were approved by the Institutional Review Board (IRB) at Dong-A University Hospital, and prior consents were obtained from all blood donors. Peripheral blood was collected from healthy donors, and human peripheral monocytes were separated using a Histopaque-1077 gradient. Neutrophils were separated through methods such as dextran precipitation of red blood cell, hypotonic lysis, and usage of lymphocyte isolation medium gradient, as known in the related art (Bae, Y. S. et al. Blood 97, 2854-2862(2001)). The separated human leukocytes were used immediately.
(§3) Next, an effect of the Ac-PGP on production of cytokines by human neutrophils and PBMCs was examined. […] A human CXCR2 chemokine agonist CXCL8 had few effects on production of TNF-α or IFN-γ stimulated with LPS (FIG. 28 to FIG. 31). Therefore, the Ac-PGP could improve both antiseptic activities in leukocytes derived from human beings and mice.

mouse splenocytes = test: Cytokine release from LPS-stimulated mouse splenocytes (ELISA); assay type: cell-based
Procedure: Mouse splenocytes were positioned on an RPMI 1640 medium including 5% FBS in a 96-well plate, and maintained at 37° C. in a 5% CO2 incubator. Thereafter, the splenocytes were stationarily incubated with LPS (100 ng/ml) for 24 hours in the presence or absence of Ac-PGP. After 30 minutes, LPS was added to the cells and collected a cell-free supernatant, and then the supernatant was centrifuged, and TNF-α, IL-6 and IFN-γ were measured using ELISA (BD Biosciences Pharmingen). In regards to the effect of IFN-γ on production of pro-inflammatory cytokines induced by LPS, 5×10^5 cells/ml of the mouse splenocytes were stimulated with 100 ng/ml of LPS in the presence or absence IFN-γ (R&D) (at various concentrations of 1, 10, 100 and 1,000 IU/ml). Amounts of TNF-α and IL-6 were measured 20 hours after stationary incubation using ELISA (BD Biosciences Pharmingen).
(§4) An effect of the Ac-PGP on a pro-inflammatory cytokine in a peritoneal fluid by CLP was determined from 4 to 72 hours after the CLP. The CLP induced a remarkable increase in levels of pro-inflammatory cytokines (TNF-α, IL-1β and IL-6) within 24 hours (FIGS. 14 to 16). Injection of the Ac-PGP in a sepsis model by the CLP induced a remarkable change in levels of the cytokines. […] To evaluate an effect of the Ac-PGP on production of the pro-inflammatory cytokines by the LPS, in vitro production of TNF-α and IL-6 by the mouse splenocytes was evaluated. Direct release of the TNF-α and IL-6 from the mouse splenocytes by the LPS was suppressed by in vitro treatment with the Ac-PGP (FIGS. 17 and 18).
Since it was confirmed that the administration of the Ac-PGP improved in vivo production of IFN-γ, a direct effect of the Ac-PGP on production of IFN-γ by splenocytes was examined. […] Also, an effect of IFN-γ on production of the pro-inflammatory cytokines was also examined.

caspase-3 = test: Caspase-3 activation in splenocytes of CLP mice (immunohistochemistry); assay type: in vivo, mouse; conditions: FIG. 23
Procedure: (§5) First, a tissue embedded in paraffin was deparaffinized using a typical histological protocol, and performed digoxigenin-dUTP nick end labeling (TUNEL) analysis. Sections were permeated into the Triton X-100 at 4° C. for 2 minutes, and the sections were flooded in terminal deoxynucleotidyl transferase (TdT) and a TUNEL reagent at 37° C. for 60 minutes. A percentage of apoptotic cells (TUNEL-positive cells) was determined by counting 500 splenocytes under an optical microscope. Also, the tissue embedded in paraffin was deparaffinized using a typical histological protocol, and immunohistochemical analysis was performed on the microtomed sections of caspase-3 (Wang J. et al. 2001 Proc. Natl. Acad. Sci. USA 98:4038-43).
(§6) The apoptosis of immune cells is associated with the mortality on sepsis. Here, the CLP was proven to remarkably increase apoptosis of splenocytes (FIG. 22). […] Apoptosis of lymphocytes was induced by activation of some major caspases including caspase-3. Therefore, not only the effect of Ac-PGP on activation of caspase-3 but also the effect of CLP activation by caspase-3 were examined (FIG. 23).

CLP mice [2] = test: Apoptosis of immune cells (TUNEL) in CLP mice; assay type: in vivo, mouse
Procedure: as §5, §1, §6

CLP mice [3] = test: Cytokines in peritoneal fluid after CLP (ELISA); assay type: in vivo, mouse
Procedure: To measure a production amount of cytokines induced by CLP in a peritoneal lavage fluid, mice were provided with Ac-PGP for 2 hours, 14 hours, 26 hours, and 38 hours after CLP. A peritoneal lavage fluid was collected within various time zones between 4 and 72 hours after the CLP, and cytokines present in the peritoneal fluid was measured using ELISA (BD Biosciences Pharmingen).
as §4
An effect of the Ac-PGP on levels of Th1 cytokines by CLP in a peritoneal fluid was also determined from 4 to 72 hours after the CLP.

PBMCs = test: Cytokine production by LPS-stimulated human PBMCs; assay type: cell-based; conditions: human PBMCs stimulated with LPS
Source text: as §2, §3

acetylated-Pro-Gly-Pro [Ac-PGP]
necrosis of the liver tissues (CLP mice [1]; 17.5 mg/kg 2 hours after CLP): decreased | formation of alveolar congestion and thrombotic lesions in the lungs (CLP mice [1]): remarkably suppressed | production of TNF-α (human neutrophils; FIG. 28): remarkably suppressed | production of IFN-γ (human neutrophils; FIG. 30): remarkably improved | release of TNF-α by LPS (mouse splenocytes; LPS 100 ng/ml, 24 hours, FIG. 17): suppressed | release of IL-6 by LPS (mouse splenocytes; LPS 100 ng/ml, 24 hours, FIG. 18): suppressed | production of IFN-γ by LPS (mouse splenocytes; LPS-stimulated splenocytes, FIG. 24): increased production of IFN-γ | activation of caspase-3 (caspase-3): remarkably suppressed | apoptosis of the immune cells in the spleen (CLP mice [2]; CLP mice, FIG. 8): remarkably suppressed | apoptosis of the immune cells in the thymus (CLP mice [2]; CLP mice, FIG. 9): remarkably suppressed | apoptosis of splenocytes (CLP mice [2]; CLP mice, FIG. 22): remarkably suppressed the apoptosis of splenocytes | inhibitory effect of the apoptosis of splenocytes by Ac-PGP (CLP mice [2]; IFN-γ-deficient CLP mice, FIG. 22): remarkably relieved | level of TNF-α in peritoneal fluid (CLP mice [3]; 4 to 72 hours after CLP, FIG. 14): induced a decrease in levels | level of IL-1β in peritoneal fluid (CLP mice [3]; 4 to 72 hours after CLP, FIG. 15): induced a decrease in levels | level of IL-6 in peritoneal fluid (CLP mice [3]; 4 to 72 hours after CLP, FIG. 16): induced a decrease in levels | level of IFN-γ in peritoneal fluid (CLP mice [3]; 4 to 72 hours after CLP, FIG. 19): remarkably increased | level of IL-12p70 in peritoneal fluid (CLP mice [3]; 4 to 72 hours after CLP, FIG. 20): remarkably increased | level of IL-2 in peritoneal fluid (CLP mice [3]; 4 to 72 hours after CLP, FIG. 21): remarkably increased | level of IFN-γ in the peritoneal fluid (CLP mice [3]; 24 hours after the CLP): improved levels | level of IL-12 in the peritoneal fluid (CLP mice [3]; 24 hours after the CLP): improved levels | production of TNF-α (PBMCs; FIG. 29): remarkably suppressed | production of IFN-γ (PBMCs; FIG. 31): remarkably improved
